Structures can show the parent of a compound that is named as a salt.
Legend:
cholinergic receptors = experiment: Receptor affinity, cholinergic; assay type: binding
[1] = modified release (MR) formulation of Compound (I) that reduces QT prolongation; cited from earlier work
sigma1 receptors = sigma1 receptors (Homo sapiens, UniProt Q99720); experiment: Molecular binding profile, sigma1
[2] = tested on: BDNF release by primary rat astrocytes; experiment: BDNF release by primary rat astrocytes, in situ ELISA; assay type: cell-based; settings: 5 days incubation
Procedure: At confluency, astrocytes were plated in 96-well Nunc MaxiSorp surface polystyrene flat-bottom immunoplate precoated with poly-D-lysine during 30 min. and an anti-BDNF monoclonal antibody overnight at 4° C. at a density of 30,000 cells/well. […] At the end of drug treatment, cells were carefully washed with TBST (20 mM Tris-HCl (pH 7.6), 150 mM NaCl, and 0.05% (vol/vol) Tween 20). The plate was then incubated with the polyclonal anti-human BDNF antibody overnight and BDNF quantified. Experimental Protocol-In Situ ELISA on Primary Astrocytes Rat Primary Culture of Astrocytes Rat mixed glial cells were cultured as described by McCarthy et al. Primary rat glial cells were prepared from the cortical of newborn Wistar rats (1 day). […] Medium was changed 3 times per week. At confluency, astrocytes were plated in 96-well Nunc MaxiSorp surface polystyrene flat-bottom immunoplate precoated with poly-D-lysine during 30 min (Sigma, Ref: […], batch: SLBS8705) and an anti-BDNF monoclonal antibody overnight at 4° C. at a density of 30,000 cells/well. (Balkowiec and Katz “Cellular Mechanisms Regulating Activity-Dependent Release of Native Brain-Derived Neurotrophic Factor from Hippocampal Neurons” J. […] At the end of drug treatment, cells were carefully washed with TBST (20 mM Tris-HCl (pH 7.6), 150 mM NaCl, and 0.05% (vol/vol) Tween 20). The plate was then incubated with the polyclonal anti-human BDNF antibody overnight. The amount of specifically bound polyclonal antibody, which when exposed to chromogenic substrate (TMB reagent; Promega), changes color in proportion to the amount of BDNF present in the sample. The color intensity was quantified by measuring the absorbance at 450 nm. BDNF standards, ranging in concentration from 0 to 500 pg/mL were added in parallel wells in the same medium than hippocampal neurons.

QT prolongation = settings: patients treated with Compound (I); related to plasma levels of Compound (I) and metabolite BFB-520; cited from earlier work
histaminergic receptors = experiment: Receptor affinity, histaminergic; assay type: binding
dopaminergic receptors = experiment: Receptor affinity, dopaminergic; assay type: binding
[3] = molecular target: alpha1-adrenergic receptors; experiment: Molecular binding profile, alpha1-adrenergic
5-HT2A receptors = 5-HT2A receptors (Homo sapiens, UniProt P28223); experiment: Molecular binding profile, 5-HT2A
Chain of 5-HT2A receptors (P28223 whole entry): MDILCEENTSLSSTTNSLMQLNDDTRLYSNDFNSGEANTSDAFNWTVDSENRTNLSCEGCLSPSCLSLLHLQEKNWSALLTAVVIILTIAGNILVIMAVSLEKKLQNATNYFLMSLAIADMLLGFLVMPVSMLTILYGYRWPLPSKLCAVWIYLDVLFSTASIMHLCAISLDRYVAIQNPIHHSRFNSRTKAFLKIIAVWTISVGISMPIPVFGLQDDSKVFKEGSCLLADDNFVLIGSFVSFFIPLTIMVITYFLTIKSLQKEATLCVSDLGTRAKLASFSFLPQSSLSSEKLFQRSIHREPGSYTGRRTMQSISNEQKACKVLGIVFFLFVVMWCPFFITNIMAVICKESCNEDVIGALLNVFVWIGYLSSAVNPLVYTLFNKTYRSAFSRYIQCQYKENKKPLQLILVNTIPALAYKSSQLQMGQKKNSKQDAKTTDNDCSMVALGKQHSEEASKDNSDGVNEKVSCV

[4] = tested on: negative symptoms in schizophrenia; experiment: Phase 2b clinical study, negative symptoms in schizophrenia; assay type: in vivo, human; settings: both tested doses (32 mg and 64 mg)
[5] = tested on: GDNF release by primary rat astrocytes; experiment: GDNF release by primary rat astrocytes, in situ ELISA; assay type: cell-based; settings: 5 days incubation
Procedure: Experimental Protocol-In Situ ELISA on Primary Astrocytes Rat Primary Culture of Astrocytes Rat mixed glial cells were cultured as described by McCarthy et al. Primary rat glial cells were prepared from the cortical of newborn Wistar rats (1 day). Briefly, meninges and blood vessels of the mice cortex were removed and placed in ice-cold medium of Leibovitz (L15; PanBiotech, ref P04-27055, batch 4511117) containing 2% Penicillin-Streptomycin (PS; PanBiotech, ref P06-07100, batch 2110917) and 1% of bovine serum albumin (BSA; […] Cells were then submitted to a supplementary incubation of 15 min. at 37° C. in presence of deoxyribonuclease I (0.1 mg/mL Panbiotech, ref: P60-37780100, batch: H140508). Cells were then pelleted (5 min. at 1200 rpm) and trypsinization was stopped by adding DMEM (PanBiotech, Ref P04-03600, Batch 8420517) supplemented with 10% FCS (Fischer, Ref 10270106, batch 41A0940K), 1 mM of Na/pyruvate (PanBiotech, ref: P04-43100, batch 3470914). Cells suspension was mechanically dissociated and filtered through […] diameter nylon meshes (BD Falcon, Ref: 352340). The cells were collected by centrifugation at 1200 rpm/min for 10 min, resuspended in culture medium and then plated in culture flasks (Dutscher, ref: 690175). Cells were seeded at a density of 1.25×10^5 cells/cm^2 and culture in 5% CO2 at 37° C. Medium was changed 3 times per week. At confluency, astrocytes were plated in 96-well Nunc MaxiSorp surface polystyrene flat-bottom immunoplate precoated with poly-D-lysine during 30 min (Sigma, Ref: […], batch: SLBS8705) and an anti-GDNF monoclonal antibody overnight at 4° C. at a density of 30,000 cells/well. […] At the end of drug treatment, cells were carefully washed with TBST (20 mM Tris-HCl (pH 7.6), 150 mM NaCl, and 0.05% (vol/vol) Tween 20). The plate was then incubated with the polyclonal anti-human GDNF antibody overnight. The amount of specifically bound polyclonal antibody, which when exposed to chromogenic substrate (TMB reagent; Promega), changes color in proportion to the amount of GDNF present in the sample. The color intensity was quantified by measuring the absorbance at 450 nm. GDNF standards, ranging in concentration from 0 to 500 pg/mL were added in parallel wells in the same medium than hippocampal neurons.

muscarinic receptors = experiment: Receptor affinity, muscarinic; assay type: binding

Chain of sigma1 receptors (Q99720 whole entry): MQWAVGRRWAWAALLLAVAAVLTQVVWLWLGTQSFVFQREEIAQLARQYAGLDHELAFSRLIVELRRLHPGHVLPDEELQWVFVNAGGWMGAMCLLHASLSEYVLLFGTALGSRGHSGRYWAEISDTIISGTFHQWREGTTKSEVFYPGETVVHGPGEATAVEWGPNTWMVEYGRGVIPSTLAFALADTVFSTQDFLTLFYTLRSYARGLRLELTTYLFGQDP

In the case of `O=C(CN1CCC(CN2Cc3ccccc3C2=O)CC1)c1ccc(F)cc1` [Compound (I), 1H-Isoindol-1-one, 2-[[1-[2-(4-Fluorophenyl)-2-oxoethyl]-4-piperidinyl]methyl]-2,3-dihydro-, hydrochloride, hydrate (1:1:2)], the “affinity for cholinergic receptors” value (cholinergic receptors) is listed as “no affinity”, the “maximum plasma concentration (Cmax)” value [1] is listed as “below 80 ng/mL” and the Ki (sigma1 receptors) is listed as 254 nM. For the same compound, the “BDNF release astrocytes, % increase of control conditions” value (“BDNF release astrocytes, % increase” for short) ([2]; 3 nM) was 6.8%, the “BDNF release astrocytes, % increase” value ([2]; 10 nM) was 16.2% and the “BDNF release astrocytes, % increase” value ([2]; 30 nM) was 17.1%. For the same compound, the “BDNF release astrocytes, % increase” value ([2]; 100 nM) was 18.9%, the “BDNF release astrocytes, % increase” value ([2]; 300 nM) was 29.5% and the “BDNF release astrocytes, % increase” value ([2]; 1 μM) was 16.9%. The “QT prolongation in patients” value (QT prolongation) was “QT prolongation in patients treated with Compound (I) has been observed”, the “affinity for histaminergic receptors” value (histaminergic receptors) was “no affinity” and the “affinity for dopaminergic receptors” value (dopaminergic receptors) was “no affinity”. The Ki [3] was 14.4 nM, the Ki (5-HT2A receptors) was 7.5 nM and the “benefit over placebo in improving negative symptoms in schizophrenia” value [4] was “statistically significant benefit”. For the same compound, the “GDNF release astrocytes, % increase of control conditions” value (shortened to “GDNF release astrocytes, % increase”) ([5]; 3 nM) was 11.4%, the “GDNF release astrocytes, % increase” value ([5]; 10 nM) was 13.8% and the “GDNF release astrocytes, % increase” value ([5]; 30 nM) was 14.2%. For the same compound, the “GDNF release astrocytes, % increase” value ([5]; 100 nM) was 14.8%, the “GDNF release astrocytes, % increase” value ([5]; 300 nM) was 20.8% and the “GDNF release astrocytes, % increase” value ([5]; 1 μM) was 17.5%. For the same compound, the “affinity for muscarinic receptors” value (muscarinic receptors) was “no affinity”.

Reference: US11083723B2, “Use of roluperidone to treat negative symptoms and disorders, increase neuroplasticity, and promote neuroprotection” (Minerva Neurosciences, Inc., priority 2018, dated 2021)
